Experimental data as given in doi:10.1101/2025.06.17.660082v1 (bioRxiv, 2025).

Experiments:
white hMADS cells = assay: Lipolysis assay; assay type: cell-based, human; details: for FFA release after pretreatment with adenylyl cyclase inhibitor SQ22536: white hMADS
GIPR = molecular target: T1, GIPR (Homo sapiens, UniProt P48546); assay: Schild analysis of FFA release in hMADS with GIPR antagonist; assay type: cell-based
T1 sequence (P48546 22-466): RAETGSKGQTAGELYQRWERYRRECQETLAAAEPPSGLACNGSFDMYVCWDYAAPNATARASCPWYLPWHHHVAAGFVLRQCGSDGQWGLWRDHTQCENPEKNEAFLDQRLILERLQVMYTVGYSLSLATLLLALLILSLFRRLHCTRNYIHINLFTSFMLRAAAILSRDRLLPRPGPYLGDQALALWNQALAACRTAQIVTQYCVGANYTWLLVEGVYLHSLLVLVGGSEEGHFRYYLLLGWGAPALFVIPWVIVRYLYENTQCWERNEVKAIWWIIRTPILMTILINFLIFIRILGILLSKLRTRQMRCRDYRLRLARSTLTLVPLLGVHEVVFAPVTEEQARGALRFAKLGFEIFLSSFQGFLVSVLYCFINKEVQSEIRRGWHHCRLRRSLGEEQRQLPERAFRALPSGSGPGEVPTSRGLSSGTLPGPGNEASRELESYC

[1] = healthy individuals, degradation by dipeptidyl peptidase 4; cited from earlier work
[2] = molecular target: human insulin receptor/ CD220 (28-944) protein (Homo sapiens, UniProt P06213); assay: Surface plasmon resonance, immobilised biotinylated peptide, INSR injected; assay type: binding; details: biotinylated peptide on Sensor Chip SA
Chain of human insulin receptor/ CD220 (28-944) protein (P06213 28-944 isoform P06213-2): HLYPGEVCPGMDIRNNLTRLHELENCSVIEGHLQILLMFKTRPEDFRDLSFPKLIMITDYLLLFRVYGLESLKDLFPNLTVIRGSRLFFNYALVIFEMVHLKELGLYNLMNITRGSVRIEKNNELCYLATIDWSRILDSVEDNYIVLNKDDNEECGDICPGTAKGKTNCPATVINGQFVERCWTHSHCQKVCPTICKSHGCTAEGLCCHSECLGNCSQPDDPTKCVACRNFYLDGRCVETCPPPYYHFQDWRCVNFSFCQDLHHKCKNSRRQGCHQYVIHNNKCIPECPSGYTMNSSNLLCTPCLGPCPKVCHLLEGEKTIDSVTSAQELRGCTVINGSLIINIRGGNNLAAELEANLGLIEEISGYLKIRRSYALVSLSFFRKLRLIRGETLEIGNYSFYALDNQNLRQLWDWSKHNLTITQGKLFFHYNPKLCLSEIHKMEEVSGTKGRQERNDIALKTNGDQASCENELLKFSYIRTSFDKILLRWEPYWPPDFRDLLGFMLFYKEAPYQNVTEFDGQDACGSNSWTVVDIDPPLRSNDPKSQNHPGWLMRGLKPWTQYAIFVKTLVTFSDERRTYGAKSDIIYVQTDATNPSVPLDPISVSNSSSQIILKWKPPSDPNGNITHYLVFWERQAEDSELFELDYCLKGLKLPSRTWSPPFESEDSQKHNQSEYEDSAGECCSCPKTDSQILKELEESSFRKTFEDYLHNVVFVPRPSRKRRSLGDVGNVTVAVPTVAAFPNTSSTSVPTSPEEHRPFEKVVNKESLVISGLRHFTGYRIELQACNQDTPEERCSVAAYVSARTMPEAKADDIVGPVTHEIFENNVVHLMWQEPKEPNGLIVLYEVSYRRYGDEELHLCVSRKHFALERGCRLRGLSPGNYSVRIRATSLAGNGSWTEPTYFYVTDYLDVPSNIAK

hMADS cells = assay: mRNA expression by RT-qPCR in hMADS; assay type: cell-based, human; details: in the presence of 10 nM insulin, 24 h

In the case of brain natriuretic peptide [BNP], the “FFA release after pretreatment with adenylyl cyclase inhibitor SQ22536” value (white hMADS cells) is reported as “remains unaffected”.
For CCCCCCCCCCCCCCCC(=O)N[C@@H](CCC(=O)NCCCC[C@H](NC(=O)[C@H](Cc1ccc(O)cc1)NC(=O)[C@H](CC(=O)O)NC(=O)[C@H](CO)NC(=O)[C@@H](NC(=O)[C@H](Cc1ccccc1)NC(=O)[C@@H](NC(C)=O)[C@@H](C)O)[C@@H](C)CC)C(=O)N[C@H](C(=O)N[C@@H](C)C(=O)N[C@@H](CC(C)C)C(=O)N[C@@H](CC(=O)O)C(=O)N[C@@H](CCCCN)C(=O)N[C@H](C(=O)N[C@@H](CCCNC(=N)N)C(=O)N[C@@H](CCC(N)=O)C(=O)N[C@@H](CCC(N)=O)C(=O)N[C@@H](CCC(=O)O)C(=O)N[C@@H](Cc1ccccc1)C(=O)N[C@H](C(=O)N[C@@H](CC(N)=O)C(=O)N[C@@H](Cc1c[nH]c2ccccc12)C(=O)N[C@@H](CC(C)C)C(=O)N[C@@H](CC(C)C)C(=O)N[C@@H](C)C(=O)N[C@@H](CCC(N)=O)C(=O)N[C@@H](CCCCN)C(=O)NCC(N)=O)C(C)C)[C@@H](C)CC)[C@@H](C)CC)C(=O)O [GIPR antagonist], the “effect on lipolysis induced by 1 µM isoprenaline” value (GIPR) was “remains unchanged”.
In the case of CC[C@H](C)[C@H](NC(=O)[C@H](CO)NC(=O)[C@H](Cc1ccc(O)cc1)NC(=O)[C@H](CC(=O)O)NC(=O)[C@H](CO)NC(=O)[C@@H](NC(=O)[C@H](Cc1ccccc1)NC(=O)[C@@H](NC(=O)CNC(=O)[C@H](CCC(=O)O)NC(=O)[C@H](C)NC(=O)[C@@H](N)Cc1ccc(O)cc1)[C@@H](C)O)[C@@H](C)CC)C(=O)N[C@@H](C)C(=O)N[C@@H](CCSC)C(=O)N[C@@H](CC(=O)O)C(=O)N[C@@H](CCCCN)C(=O)N[C@H](C(=O)N[C@@H](Cc1c[nH]cn1)C(=O)N[C@@H](CCC(N)=O)C(=O)N[C@@H](CCC(N)=O)C(=O)N[C@@H](CC(=O)O)C(=O)N[C@@H](Cc1ccccc1)C(=O)N[C@H](C(=O)N[C@@H](CC(N)=O)C(=O)N[C@@H](Cc1c[nH]c2ccccc12)C(=O)N[C@@H](CC(C)C)C(=O)N[C@@H](CC(C)C)C(=O)N[C@@H](C)C(=O)N[C@@H](CCC(N)=O)C(=O)N[C@@H](CCCCN)C(=O)NCC(=O)N[C@@H](CCCCN)C(=O)N[C@@H](CCCCN)C(=O)N[C@@H](CC(N)=O)C(=O)N[C@@H](CC(=O)O)C(=O)N[C@@H](Cc1c[nH]c2ccccc12)C(=O)N[C@@H](CCCCN)C(=O)N[C@@H](Cc1c[nH]cn1)C(=O)N[C@@H](CC(N)=O)C(=O)N[C@H](C(=O)N[C@H](C(=O)N[C@@H](CCC(N)=O)C(=O)O)[C@@H](C)O)[C@@H](C)CC)C(C)C)[C@@H](C)CC [hGIP], the “FFA release in hMADS treated with GIPR siRNA vs siNC” value (white hMADS cells; GIPR knockdown approximately 40%) is given as “significantly reduced”, the EC50 (white hMADS cells; read-out: EC50, FFA release read-out, hMADS cells) is given as 1.1 nM and the half-life [1] is given as “approximately 7 minutes”.
With Ac-PKMVPQFNTELKIFPEVNIK-NH2 [SP34] the “binding of insulin receptor to immobilised peptide” value [2] was “does not exhibit binding”.
For CC(C)NCC(O)c1ccc(O)c(O)c1 (centres unmarked) [isoprenaline], the “FFA release after pretreatment with adenylyl cyclase inhibitor SQ22536” value (white hMADS cells) was “inhibited”.
In the case of COc1cc([C@@H]2c3cc4c(cc3[C@H](O)[C@H]3COC(=O)[C@@H]23)OCO4)cc(OC)c1OC [PPP, Picropodophyllin], the “expression of FASN” value (hMADS cells) is reported as “significantly lower”.
